# Experimental data reported in article PMC11352108, “Anti-Biofilm and Anti-Inflammatory Properties of the Truncated Analogs of the Scorpion Venom-Derived Peptide IsCT against Pseudomonas aeruginosa” (Antibiotics, 2024).
# “And” between values parts separate entries of the source, which are not always exact repeats. Equal entries are not always repeated. Where no end group is shown, it is not given here.
# Assays:
# [1] = test system: P. aeruginosa PAO1 biofilms; assay: Biofilm susceptibility assay (crystal violet); format: cell-based, Pseudomonas aeruginosa; details: 150 μM, 24 h, 37 °C, 10^6 CFU/mL, OD 550 nm, compared with untreated control
# Procedure: The effect of the truncated IsCT analogs on biofilms of P. aeruginosa was assessed using a method that was described previously. Briefly, 100 μL of the test peptides (final concentration, 150 μM) was added to each well of a 96-well microtiter plate (Nunc^TM, Roskilde, Denmark). Then, an aliquot of P. aeruginosa PAO1 culture was added to each well to obtain a final concentration of 10^6 CFU/mL. The bacterial culture alone was included as an untreated control. Following a 24-h incubation at 37 °C, unattached planktonic cells were discarded, and the wells were carefully washed twice with PBS with a pH of 7.4. Thereafter, biofilm biomasses were quantified by 0.1% crystal violet staining. After excess stains were discarded, the wells were washed with PBS pH 7.4 and left to air dry for 2 h at 37 °C. The biofilm biomass was subsequently dissolved by the addition of 30% acetic acid, and the plates were spectrophotometrically read at 550 nm using a BioTek Synergy HT microplate reader.
# [2] = test system: pyocyanin production by P. aeruginosa PAO1; assay: Pyocyanin assay (chloroform extraction); format: cell-based, Pseudomonas aeruginosa; details: 24 h, 37 °C; for Pyocyanin production (%control), Exp.1: replicate Exp.1; for Pyocyanin production (%control), Mean: mean of Exp.1-3; for Pyocyanin production (%control), Exp.2: replicate Exp.2; for Pyocyanin production (%control), Exp.3: replicate Exp.3
# Procedure: The effect of IsCT-Δ6-8 peptide on the production of pyocyanin pigments produced by P. aeruginosa PAO1 was assessed using the protocol described previously. In brief, 750 μL of P. aeruginosa culture (10^8 CFU/mL, final concentration) and 250 μL of the test peptide prepared in LB broth (final concentrations ranged from 37.5 μM to 150 μM) were incubated at 37 °C for 24 h with agitation (150 rpm). A P. aeruginosa culture without the IsCT-Δ6-8 peptide served as an untreated control. Thereafter, supernatants were collected by centrifugation at 3900× g for 10 min, and pyocyanin pigment was extracted twice using chloroform/0.2 N HCl. Centrifugation was performed at 3900× g for 10 min before the pink-colored solution was collected, and the absorbance was measured at […].
# sheep red blood cells = assay: Hemolytic assay; format: cell-based
# Procedure: A hemolytic assay was carried out according to the previously described method using commercially sourced sheep red blood cells (Professional Nanomed Company Limited, Bangkok, Thailand). One hundred microliters of a 2% sheep red blood cell suspension prepared in phosphate-buffered saline (PBS) pH 7.4. was incubated for 1 h at 37 °C with 100 μL of the studied peptides (final concentration of 150 µM). After centrifugation at 1000× g for 5 min, 100 μL of supernatant was transferred to new 96-well plates, and the release of hemoglobin was monitored, measuring an optical density (OD) at 405 nm using a BioTek Synergy HT microplate reader. Red blood cells treated with PBS pH 7.4 were used as a negative control, while those treated with 1% Triton X-100 were used as a positive control. The percent hemolysis was calculated as follows:(1) % Hemolysis=OD405 nm of the test peptide−OD405 nm of negative control/OD405 nm of positive control−OD405 nm of negative control × 100
# RAW 264.7 macrophages = assay: Cytotoxicity assay (MTT); format: cell-based, murine; details: 48 h; for % Viability, Exp.1: replicate Exp.1; for % Viability, Exp.2: replicate Exp.2
# Procedure: The murine macrophage cell line RAW264.7 (TIB-71) was obtained from American Type Culture Collection (ATCC; Manassas, VA, USA). RAW 264.7 cells were cultured in DMEM (HyClone^TM, Logan, UT, USA) supplemented with 10% (v/v) heat-inactivated fetal bovine serum (Gibco, Fisher Scientific, Göteborg, Sweden), 2 mM L-glutamine (PAA Laboratories GmbH, Pasching, Austria), 10 mM 4-(2-hydroxyethyl)-1-piperazineethanesulfonic acid (HyClone^TM, Logan, UT, USA), 100 U/mL penicillin, and 100 µg/mL streptomycin (PAA). RAW 264.7 cells were grown in a 5% CO2 at 37 °C.
# The cytotoxic effect of the IsCT-Δ6-8 peptide was assessed using the tetrazolium-based 3-(4,5-dimethylthiazol-2-yl)-2,5-diphenyltetrazolium bromide (MTT) assay. RAW 264.7 cells at 3.5 × 10^5 cells were seeded in a 96-well microtiter plate and incubated at 37 °C for 1 h under 5% CO2. Then, the cells were treated with or without the IsCT-Δ6-8 peptide at concentrations ranging from 37.5 μM to 150 μM for 48 h at 37 °C under 5% CO2. After incubation, 20 µL of MTT (5 mg/mL) was added in each well, and the plate was incubated for another 3 h. The supernatant was then discarded, and 100 µL of DMSO was added to solubilize formazan crystals. The plate was subsequently read at OD540 nm using a BioTek Synergy HT microplate reader. The percent cell viability was calculated using the following equation:(2) % Cell viability=OD of treated cells/OD of untreated cells×100
# P. aeruginosa PAO1 = assay: Growth curve assay; format: cell-based, Pseudomonas aeruginosa; details: 150 μM; for OD600nm, Mean / OD600nm, Exp.1 / OD600nm, Exp.2: 37 °C, 150 rpm; for OD600nm, Mean: mean of 2 experiments; for OD600nm, Exp.1: replicate Exp.1; for OD600nm, Exp.2: replicate Exp.2
# Procedure: The effect of the IsCT-Δ6-8 peptide on the growth of P. aeruginosa was assessed as previously described. A culture of P. aeruginosa PAO1 was grown at a concentration of 10^6 CFU/ mL in the presence or absence of the IsCT-Δ6-8 peptide (final concentration, 150 µM) at 37 °C, with agitation at 150 rpm. The OD600 nm was then recorded at 0, 6, 12, 18, and 24 h.
sequence,measurement,setting,value
ILGKIIKSLF [IsCT-Δ6-8],Decrease in P. aeruginosa biofilm biomass,[1],33.12% and 33%
same,"Pyocyanin production (%control), Exp.1","[2]; 37.5 µM, 10^8 CFU/mL, LB broth, absorbance 380 nm",124.961 %control
same,"Pyocyanin production (%control), Mean",[2]; 37.5 µM,82.972 %control
same,"Pyocyanin production (%control), Exp.2",[2]; 37.5 µM,54.723 %control
same,"Pyocyanin production (%control), Exp.3",[2]; 37.5 µM,69.231 %control
same,"Pyocyanin production (%control), Mean",[2]; 75 µM,69.677 %control
same,"Pyocyanin production (%control), Exp.1",[2]; 75 µM,120.493 %control
same,"Pyocyanin production (%control), Exp.2",[2]; 75 µM,42.094 %control
same,"Pyocyanin production (%control), Exp.3",[2]; 75 µM,46.444 %control
same,"Pyocyanin production (%control), Mean",[2]; 150 µM,48.905 %control
same,"Pyocyanin production (%control), Exp.1",[2]; 150 µM,76.348 %control
same,"Pyocyanin production (%control), Exp.2",[2]; 150 µM,36.550 %control
same,"Pyocyanin production (%control), Exp.3",[2]; 150 µM,33.817 %control
same,Hemolytic activity (in words),"sheep red blood cells; sheep erythrocytes, concentrations as high as 150 μM",decreased hemolytic activity
same,"% Hemolysis, Exp.1","sheep red blood cells; sheep red blood cells, 1 h, 37 °C, peptides 150 μM (Triton X-100 1%), replicate Exp.1",1.56%
same,"% Hemolysis, Exp.2","sheep red blood cells; sheep red blood cells, 1 h, 37 °C, peptides 150 μM (Triton X-100 1%), replicate Exp.2",0.72%
same,"% Hemolysis, Exp.3","sheep red blood cells; sheep red blood cells, 1 h, 37 °C, peptides 150 μM (Triton X-100 1%), replicate Exp.3",3.45%
same,"% Viability, Exp.1","RAW 264.7 macrophages; 37.5 µM, 37 °C, 5% CO2, MTT, OD 540 nm",109.403%
same,"% Viability, Exp.2","RAW 264.7 macrophages; 37.5 µM, MTT",94.438%
same,"% Viability, Exp.1","RAW 264.7 macrophages; 75 µM, MTT",102.742%
same,"% Viability, Exp.2","RAW 264.7 macrophages; 75 µM, MTT",96.302%
same,"% Viability, Exp.1","RAW 264.7 macrophages; 150 µM, MTT",94.479%
same,"% Viability, Exp.2","RAW 264.7 macrophages; 150 µM, MTT",100.171%
same,Viability of RAW 264.7 macrophages (in words),"RAW 264.7 macrophages; 37.5–150 μM, MTT, compared with untreated control",not significantly changed
same,"OD600nm, Mean",P. aeruginosa PAO1; 0 h,0.0000
same,"OD600nm, Exp.1",P. aeruginosa PAO1; 0 h,0.0000
same,"OD600nm, Exp.2",P. aeruginosa PAO1; 0 h,0.0000
same,"OD600nm, Mean","P. aeruginosa PAO1; 6 h, untreated control 0.3954",0.2100
same,"OD600nm, Exp.1","P. aeruginosa PAO1; 6 h, untreated control 0.3955",0.2055
same,"OD600nm, Exp.2","P. aeruginosa PAO1; 6 h, untreated control 0.3953",0.2145
same,"OD600nm, Mean","P. aeruginosa PAO1; 12 h, untreated control 0.5425",0.4723
same,"OD600nm, Exp.1","P. aeruginosa PAO1; 12 h, untreated control 0.5353",0.4765
same,"OD600nm, Exp.2","P. aeruginosa PAO1; 12 h, untreated control 0.5498",0.4680
same,"OD600nm, Mean","P. aeruginosa PAO1; 18 h, untreated control 0.6067",0.5898
same,"OD600nm, Exp.1","P. aeruginosa PAO1; 18 h, untreated control 0.6213",0.5830
same,"OD600nm, Exp.2","P. aeruginosa PAO1; 18 h, untreated control 0.5922",0.5965
same,"OD600nm, Mean","P. aeruginosa PAO1; 24 h, untreated control 0.6209",0.6033
same,"OD600nm, Exp.1","P. aeruginosa PAO1; 24 h, untreated control 0.6330",0.5450
same,"OD600nm, Exp.2","P. aeruginosa PAO1; 24 h, untreated control 0.6088",0.6615
same,Growth of P. aeruginosa at early time points (in words),"P. aeruginosa PAO1; 6 h and 12 h, compared to untreated control culture",slow growth rate
same,Growth of P. aeruginosa after prolonged exposure (in words),"P. aeruginosa PAO1; 18 h and 24 h, versus untreated control (p > 0.05)",comparable to that of the untreated control culture
